According to patent EP0227941A1, “1-Phenyl-4-(1H)-pyridazinimines, their preparation and use” (BASF Aktiengesellschaft, priority 1985, dated 1987):
Counter-ions that a name gives are not always drawn. Like-named read-outs stand apart in the source and are kept apart here.

Assays:
Assay type in all cases: biochemical, Ratten
Monoaminoxidase Typ B = target: T1, Monoaminoxidase Typ B (Rattus norvegicus, UniProt P19643); assay: Inhibition of monoamine oxidase type B in rat brain homogenate (14C-phenylethylamine); conditions: for Hemmung der Monoaminoxidase Typ B r.W. (relative Wirksamkeit): Quotient IC50 Referenzverbindung / IC50 Beispielverbindung
T1 construct: Die Bestimmung der Monoaminoxidase erfolgte in verdünntem Rattenhirnhomogenat; from tissue; host or cells: rat brain homogenate
T1 sequence (P19643 1-520): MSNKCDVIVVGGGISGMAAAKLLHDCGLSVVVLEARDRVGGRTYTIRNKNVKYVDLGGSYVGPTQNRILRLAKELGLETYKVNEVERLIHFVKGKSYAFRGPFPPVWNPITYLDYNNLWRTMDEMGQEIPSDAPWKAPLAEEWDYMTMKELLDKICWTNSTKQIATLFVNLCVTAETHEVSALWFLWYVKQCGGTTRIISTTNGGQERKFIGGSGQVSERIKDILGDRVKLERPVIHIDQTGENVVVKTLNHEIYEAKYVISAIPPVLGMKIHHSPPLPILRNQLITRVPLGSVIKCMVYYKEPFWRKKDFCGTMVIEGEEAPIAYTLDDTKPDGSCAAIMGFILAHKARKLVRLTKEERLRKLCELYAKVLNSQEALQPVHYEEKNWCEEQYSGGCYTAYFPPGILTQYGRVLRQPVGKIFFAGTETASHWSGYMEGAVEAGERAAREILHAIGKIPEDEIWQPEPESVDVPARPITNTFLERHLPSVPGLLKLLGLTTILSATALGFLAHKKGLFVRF
Experimental: (§1) Hemmung der Monoaminoxidase
(§2) Die Bestimmung der Monoaminoxidase erfolgte in verdünntem Rattenhirnhomogenat dem 1. unterschiedliche Konzentrationen der zu prüfenden Testsubstanzen und 2. für die Bestimmung der Monoaminoxidase Typ A ¹⁴C-Tryptamin in einer Konzentration von 0,4 µmol, zur Bestimmung der Monoaminoxidase Typ B ¹⁴C-Phenylethylamin in einer Konzentration von 0,25 µmol zugesetzt wurde. Dieser Ansatz wurde 20 Minuten bei 37°C inkubiert. Die Reaktion wird durch 0,1 n HCl gestoppt und die Reaktionsprodukte nach Extraktion in Toluol-Szintillator (PPO + POPOP in Toluol) bestimmt. Der Blindwert wird in analogen Ansätzen mit einer Inkubationszeit von t = 0 Minuten bestimmt.
(§3) Aus den bei den verschiedenen Inhibitorkonzentrationen gegen die Kontrolle ermittelten Hemmwerten wurde durch lineare Regression nach logit-log-Transformation die mittlere Hemmkonzentration (IC₅₀) berechnet.

[1] = target: T2, Synaptosomen-Aufnahme von Serotonin (Rattus norvegicus, UniProt P31652); assay: Inhibition of serotonin uptake in rat brain synaptosomes (cortex, 3H-serotonin); conditions: for Hemmung der Synaptosomen-Aufnahme von Serotonin r.W. (relative Wirksamkeit): Quotient IC50 Referenzverbindung / IC50 Beispielverbindung
T2 construct: Durch differentielle Zentrifugation wurden Synaptosomen erhalten; from tissue; host or cells: rat brain cortex synaptosomes
From the text: (§4) Hemmung der Neurotransmitter-Aufnahme in Rattenhirn-Synaptosomen
(§5) Hippocampus und Cortex aus Rattenhirn wurden präpariert und in 0,32 M Sucrose-Lösung homogenisiert. Durch differentielle Zentrifugation wurden Synaptosomen erhalten, die in Pufferlösung suspendiert wurden. Die Synaptosomen sind in der Lage, aus dem umgebenden Medium zugefügte Neurotransmittersubstanzen (z.B. Noradrenalin oder Serotonin) aktiv aufzunehmen. Dieser Vorgang ist durch uptake-Hemmer konzentrationsabhängig antagonisierbar. Die Synaptosomen wurden mit den Testsubstanzen in verschiedenen Konzentrationen versetzt und anschließend mit ³H-Noradrenalin (Hippocampus) bzw. ³H-Serotonin (Cortex) bei 37°C inkubiert. Die Substratkonzentration betrug ca. 10 nM. Nach Stoppen der Aufnahme durch Verdünnen mit eisgekühlter Pufferlösung wurden die Synaptosomen abzentrifugiert und die ³H-Aktivität im Sediment gemessen. Der Blindwert wird durch Inkubation bei 0°C ermittelt.
(§6) Aus den verschiedenen Inhibitor-Konzentrationen gegen Kontrolle ermittelten Hemmwerten wurde durch lineare Regression nach logit-log-Transformation die mittlere Hemmkonzentration IC₅₀ berechnet.

[2] = target: T3, Synaptosomen-Aufnahme von Noradrenalin (Rattus norvegicus, UniProt Q63380); assay: Inhibition of noradrenaline uptake in rat brain synaptosomes (hippocampus, 3H-noradrenaline); conditions: for Hemmung der Synaptosomen-Aufnahme von Noradrenalin r.W. (relative Wirksamkeit): Quotient IC50 Referenzverbindung / IC50 Beispielverbindung
T3 construct: Durch differentielle Zentrifugation wurden Synaptosomen erhalten; from tissue; host or cells: rat brain hippocampus synaptosomes
From the text: as §4, §5, §6

Monoaminoxidase Typ A = target: T4, Monoaminoxidase Typ A (Rattus norvegicus, UniProt P21396); assay: Inhibition of monoamine oxidase type A in rat brain homogenate (14C-tryptamine); conditions: for Hemmung der Monoaminoxidase Typ A r.W. (relative Wirksamkeit): Quotient IC50 Referenzverbindung / IC50 Beispielverbindung
T4 construct: Die Bestimmung der Monoaminoxidase erfolgte in verdünntem Rattenhirnhomogenat; from tissue; host or cells: rat brain homogenate
T4 sequence (P21396 1-526): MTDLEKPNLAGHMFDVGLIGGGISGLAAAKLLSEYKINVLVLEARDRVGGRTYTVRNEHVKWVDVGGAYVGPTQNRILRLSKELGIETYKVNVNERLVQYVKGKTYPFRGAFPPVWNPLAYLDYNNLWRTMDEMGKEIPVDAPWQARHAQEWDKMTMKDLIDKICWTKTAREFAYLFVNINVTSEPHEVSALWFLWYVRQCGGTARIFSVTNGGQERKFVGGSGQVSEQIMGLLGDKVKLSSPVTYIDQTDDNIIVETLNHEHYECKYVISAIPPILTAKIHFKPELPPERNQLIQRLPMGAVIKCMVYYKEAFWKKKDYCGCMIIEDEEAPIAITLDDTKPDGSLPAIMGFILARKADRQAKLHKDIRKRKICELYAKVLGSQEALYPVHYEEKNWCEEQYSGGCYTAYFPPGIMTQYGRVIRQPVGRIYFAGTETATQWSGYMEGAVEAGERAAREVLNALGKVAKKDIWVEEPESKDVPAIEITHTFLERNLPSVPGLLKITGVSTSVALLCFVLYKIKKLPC
Experimental: as §1, §2, §3

[3] = rat brain homogenate, 14C-Phenylethylamin, 20 min 37°C, read-out: Hemmung der Monoaminoxidase Typ B IC50
[4] = rat cortex synaptosomes, 3H-Serotonin ca. 10 nM, 37°C, read-out: Hemmung der Synaptosomen-Aufnahme von Serotonin IC50
[5] = rat hippocampus synaptosomes, 3H-Noradrenalin ca. 10 nM, 37°C, read-out: Hemmung der Synaptosomen-Aufnahme von Noradrenalin IC50
[6] = rat brain homogenate, 14C-Tryptamin, 20 min 37°C, read-out: Hemmung der Monoaminoxidase Typ A IC50

T2 sequence (P31652 whole entry): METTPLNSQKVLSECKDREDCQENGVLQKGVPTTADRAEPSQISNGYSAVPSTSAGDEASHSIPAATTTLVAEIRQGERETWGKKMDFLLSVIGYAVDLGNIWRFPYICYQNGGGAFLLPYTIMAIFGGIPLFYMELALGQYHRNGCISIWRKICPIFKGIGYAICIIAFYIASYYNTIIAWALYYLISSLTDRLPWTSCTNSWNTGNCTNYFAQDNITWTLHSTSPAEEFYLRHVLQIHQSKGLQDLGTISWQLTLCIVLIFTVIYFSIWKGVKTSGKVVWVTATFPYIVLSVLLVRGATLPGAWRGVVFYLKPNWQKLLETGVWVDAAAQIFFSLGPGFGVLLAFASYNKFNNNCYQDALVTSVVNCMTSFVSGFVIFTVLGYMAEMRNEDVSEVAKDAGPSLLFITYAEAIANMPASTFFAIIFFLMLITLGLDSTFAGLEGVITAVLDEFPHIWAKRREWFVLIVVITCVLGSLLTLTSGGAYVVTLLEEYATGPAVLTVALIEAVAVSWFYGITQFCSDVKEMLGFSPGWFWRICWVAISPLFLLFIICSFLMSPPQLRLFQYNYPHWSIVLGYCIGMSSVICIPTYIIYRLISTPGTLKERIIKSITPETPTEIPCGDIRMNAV
T3 sequence (Q63380 1-617): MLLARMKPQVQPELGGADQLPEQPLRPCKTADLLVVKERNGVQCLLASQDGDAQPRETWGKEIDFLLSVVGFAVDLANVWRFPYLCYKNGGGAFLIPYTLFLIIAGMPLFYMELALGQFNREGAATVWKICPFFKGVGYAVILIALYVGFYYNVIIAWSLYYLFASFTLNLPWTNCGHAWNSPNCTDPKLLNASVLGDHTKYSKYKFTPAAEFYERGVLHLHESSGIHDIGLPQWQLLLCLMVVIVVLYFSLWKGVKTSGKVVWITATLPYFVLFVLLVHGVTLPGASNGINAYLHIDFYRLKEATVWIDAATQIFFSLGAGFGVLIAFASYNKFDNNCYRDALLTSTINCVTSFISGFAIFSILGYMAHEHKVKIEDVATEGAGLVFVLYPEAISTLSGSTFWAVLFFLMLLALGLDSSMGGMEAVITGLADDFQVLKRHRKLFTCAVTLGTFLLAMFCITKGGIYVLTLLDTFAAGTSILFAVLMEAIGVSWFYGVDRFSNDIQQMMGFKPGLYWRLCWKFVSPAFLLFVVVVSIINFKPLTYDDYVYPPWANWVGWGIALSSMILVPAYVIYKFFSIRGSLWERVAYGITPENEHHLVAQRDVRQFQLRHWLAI

| SMILES | Hemmung der Monoaminoxidase Typ B r.W. (relative Wirksamkeit) (Monoaminoxidase Typ B) | IC50 (Monoaminoxidase Typ B; [3]) | Hemmung der Synaptosomen-Aufnahme von Serotonin r.W. (relative Wirksamkeit) [1] | IC50 [1, 4] | Hemmung der Synaptosomen-Aufnahme von Noradrenalin r.W. (relative Wirksamkeit) [2] | IC50 [2, 5] | Hemmung der Monoaminoxidase Typ A r.W. (relative Wirksamkeit) (Monoaminoxidase Typ A) | IC50 (Monoaminoxidase Typ A; [6]) | IC50 (Monoaminoxidase Typ B) | IC50 [1] | IC50 [2] | IC50 (Monoaminoxidase Typ A) | Hemmung der Monoaminoxidase A, Wirksamkeit der Vergleichssubstanz übertroffen (fach) (Monoaminoxidase Typ A; fold versus comparison substance) |
| --- | --- | --- | --- | --- | --- | --- | --- | --- | --- | --- | --- | --- | --- |
| N=c1ccn(-c2ccc(Cl)c(Cl)c2)nc1 [Beispiel 1, 1-(3,4-Dichlorphenyl)-4-(1H)-pyridazinimin-hydrochlorid] | 18.8 | 2600 nM | 112 | 6.5 nM | 5.3 | 5.8 nM | 2.2 | 1900 nM | – | – | – | – | – |
| Br.Cc1ccc(-n2ccc(=N)cn2)cc1 [Beispiel 5, 1-(4-Methylphenyl)-4-(1H)-pyridazinimin-hydrobromid] | 4.9 | – | 1.4 | – | 0.7 | – | 2.8 | – | 10000 nM | 240 nM | 46 nM | 1500 nM | – |
| CCc1ccc(-n2ccc(=N)cn2)cc1.Cl [Beispiel 7, 1-(4-Ethylphenyl)-4-(1H)-pyridazinimin-hydrochlorid] | 32.7 | – | 12.6 | – | 0.1 | – | 6.6 | – | 1500 nM | 58 nM | 500 nM | 640 nM | – |
| N=c1ccn(-c2ccc(Br)cc2)nc1 [Beispiel 8, 1-(4-Bromphenyl)-4-(1H)-pyridazinimin-hydrochlorid] | 4.9 | 10000 nM | 56.2 | 13 nM | 0.9 | 34 nM | 1.4 | 2900 nM | – | – | – | – | – |
| COc1cc(-n2ccc(=N)cn2)ccc1C.Cl [Beispiel 10, 1-(3-Methoxy-4-methylphenyl)-4-(1H)-pyridazinimin-hydrochlorid] | 4.9 | – | 15.2 | – | 0.3 | – | 3.4 | – | 10000 nM | 48 nM | 110 nM | 1200 nM | – |
| Cc1ccc(-n2ccc(=N)cn2)cc1F [Beispiel 11, 1-(3-Fluor-4-methylphenyl)-4-(1H)-pyridazinimin-hydrochlorid] | 9.6 | 5100 nM | 7.3 | 100 nM | 1.2 | 26 nM | 2.0 | 2100 nM | – | – | – | – | – |
| N=c1ccn(-c2ccc(C(F)(F)F)c(Cl)c2)nc1 [Beispiel 12, 1-(3-Chlor-4-trifluormethylphenyl)-4-(1H)-pyridazinimin-hydrochlorid] | 71 | 700 nM | 83.9 | 8.7 nM | 0.4 | 83 nM | 2.3 | 1800 nM | – | – | – | – | – |
| Cc1ccc(-n2ccc(=N)cn2)cc1Br [Beispiel 13, 1-(3-Brom-4-methylphenyl)-4-(1H)-pyridazinimin-hydrochlorid] | 39.8 | 1200 nM | 73.0 | 10 nM | 1.2 | 26 nM | 7.0 | 590 nM | – | – | – | – | ≤ 7 |
| N=c1ccn(-c2ccc(Cl)c(Br)c2)nc1 [Beispiel 16, 1-(3-Brom-4-chlorphenyl)-4-(1H)-pyridazinimin-hydrochlorid] | 18.1 | 2700 nM | 109 | 6.7 nM | 2.5 | 13 nM | 2.0 | 2140 nM | – | – | – | – | – |
| N=c1ccn(-c2ccc(Br)c(Cl)c2)nc1 [Beispiel 17, 1-(3-Chlor-4-bromphenyl)-4-(1H)-pyridazinimin-hydrochlorid] | 19.0 | 2600 nM | 184 | 3.9 nM | 6.5 | 4.8 nM | 2.7 | 1530 nM | – | – | – | – | – |
| N=c1ccn(-c2ccc(Br)c(Br)c2)nc1 [Beispiel 18, 1-(3,4-Dibromphenyl)-4-(1H)-pyridazinimin-hydrochlorid] | 25.8 | 1900 nM | 261 | 2.8 nM | 6.1 | 5.1 nM | 4.8 | 870 nM | – | – | – | – | – |
